Experimental data reported in PMC10940605, “Design, synthesis and in vitro anticancer activity of some new lomefloxacin derivatives” (Scientific Reports, 2024).

Legend:
Experiment in all cases: NCI-60 SRB screen
Assay type in all cases: cell-based
melanoma SK-MEL-5 = conditions: Homo sapiens; SK-MEL-5, 10^–5 Molar; read-out: Percent growth inhibition
Method in brief: (§1)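 10^−5 M single dose, 48 h exposure, SRB end point. % growth = (Ti−Tz)/(C−Tz)×100 when Ti≥Tz, else (Ti−Tz)/Tz×100.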

OVCAR-8 = conditions: Homo sapiens; OVCAR-8, 10^–5 Molar; read-out: Percent growth inhibition
Method in brief: (§2)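 Single-dose screen at 10^−5 M; cells grown in RPMI 1640 with 2 mM L-glutamine and FBS for 24 h, then exposed to compound for 48 h at 37 °C, 5% CO2. TCA-fixed, SRB-stained, absorbance read at […]; percentage growth inhibition calculated against time-zero and control wells.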

M14 = conditions: Homo sapiens; M14, 10^–5 Molar; read-out: Percent growth inhibition
Method in brief: as §2

NCI-H322M = conditions: Homo sapiens, 10^–5 Molar, read-out: Percent growth inhibition
Method in brief: as §2

MALME-3M = conditions: Homo sapiens, 10^–5 Molar, read-out: Percent growth inhibition
Method in brief: as §1

NCI-H522 = conditions: Homo sapiens; NCI-H522, 10^–5 Molar; read-out: Percent growth inhibition
Method in brief: as §2

EKVX = conditions: Homo sapiens, 10^–5 Molar, read-out: Percent growth inhibition
Method in brief: as §2

UO-31 = conditions: Homo sapiens; UO-31, 10^–5 Molar; read-out: Percent growth inhibition
Method in brief: as §2

NCI/ADR-RES = conditions: Homo sapiens, 10^–5 Molar, read-out: Percent growth inhibition
Method in brief: as §1

KM12 = conditions: Homo sapiens; KM12, 10^–5 Molar; read-out: Percent growth inhibition
Method in brief: as §1

U251 = conditions: Homo sapiens, U-251; U251, 10^–5 Molar; read-out: Percent growth inhibition
Method in brief: as §2

HOP-62 = conditions: Homo sapiens; HOP-62, 10^–5 Molar; read-out: Percent growth inhibition
Method in brief: as §2

OVCAR-4 = conditions: Homo sapiens; OVCAR-4, 10^–5 Molar; read-out: Percent growth inhibition
Method in brief: as §2

SN12C = conditions: Homo sapiens, 10^–5 Molar, read-out: Percent growth inhibition
Method in brief: as §1

786-0 = conditions: Homo sapiens; 786-0, 10^–5 Molar; read-out: Percent growth inhibition
Method in brief: as §1

HOP-92 = conditions: Homo sapiens; HOP-92, 10^–5 Molar; read-out: Percent growth inhibition
Method in brief: as §2

OVCAR-5 = conditions: Homo sapiens; OVCAR-5, 10^–5 Molar; read-out: Percent growth inhibition
Method in brief: as §1

MDA-MB-231/ATCC = conditions: Homo sapiens, 10^–5 Molar, read-out: Percent growth inhibition
Method in brief: as §1

IGROV1 = conditions: Homo sapiens, IGROV-1; IGROV1, 10^–5 Molar; read-out: Percent growth inhibition
Method in brief: as §2

ACHN = conditions: Homo sapiens, 10^–5 Molar, read-out: Percent growth inhibition
Method in brief: as §1

HCT-116 = conditions: Homo sapiens; HCT-116, 10^–5 Molar; read-out: Percent growth inhibition
Method in brief: as §2

MDA-MB-435 = conditions: Homo sapiens; MDA-MB-435, 10^–5 Molar; read-out: Percent growth inhibition
Method in brief: as §1

HCC-2998 = conditions: Homo sapiens; HCC-2998, 10^–5 Molar; read-out: Percent growth inhibition
Method in brief: as §2

SNB-19 = conditions: Homo sapiens; SNB-19, 10^–5 Molar; read-out: Percent growth inhibition
Method in brief: as §1

SW-620 = conditions: Homo sapiens; SW-620, 10^–5 Molar; read-out: Percent growth inhibition
Method in brief: as §2

Compound | inhibition at 10 µM (melanoma SK-MEL-5) | inhibition at 10 µM (OVCAR-8) | inhibition at 10 µM (M14) | inhibition at 10 µM (NCI-H322M) | inhibition at 10 µM (MALME-3M) | inhibition at 10 µM (NCI-H522) | inhibition at 10 µM (EKVX) | inhibition at 10 µM (UO-31) | inhibition at 10 µM (NCI/ADR-RES) | inhibition at 10 µM (KM12) | inhibition at 10 µM (U251) | inhibition at 10 µM (HOP-62) | inhibition at 10 µM (OVCAR-4) | inhibition at 10 µM (SN12C) | inhibition at 10 µM (786-0) | inhibition at 10 µM (HOP-92) | inhibition at 10 µM (OVCAR-5) | inhibition at 10 µM (MDA-MB-231/ATCC) | inhibition at 10 µM (IGROV1) | inhibition at 10 µM (ACHN) | further results
CCn1cc(C(=O)NN=Cc2ccc(Br)cc2)c(=O)c2cc(F)c(N3CCNC(C)C3)c(F)c21 (stereo not drawn) [Compound 3c, N'-(4-Bromobenzylidene)-1-ethyl-6,8-difluoro-7-(3-methylpiperazin-1-yl)-4-oxo-1,4-dihydroquinoline-3-carbohydrazide] | 17.6% | 42.2% | 57.3% | 14.2% | 41.3% | 21.5% | 13.1% | 31.6% | 16.7% | 52.1% | 98.6% | 11.2% | 18.3% | 47.8% | 36.1% | 38.8% | 5.97% | 45.2% | 28.7% | 11.2% | inhibition at 10 µM (HCT-116): 32.3%; inhibition at 10 µM (MDA-MB-435): 83.3%; inhibition at 10 µM (HCC-2998): 74.1%; inhibition at 10 µM (SNB-19): 45.5%; inhibition at 10 µM (SW-620): 174%
CCn1cc(C(=O)NN=Cc2ccccc2)c(=O)c2cc(F)c(N3CCNC(C)C3)c(F)c21 (stereo not drawn) [Compound 3a, N'-Benzylidene-1-ethyl-6,8-difluoro-7-(3-methylpiperazin-1-yl)-4-oxo-1,4-dihydroquinoline-3-carbohydrazide] | 88.1% | 71.6% | 150% | 47.5% | 178% | 175% | 65.7% | 52.5% | 44% | 189% | 192% | 31.4% | 29.3% | 38.3% | 167% | 44.2% | 33% | 170% | 42% | 43.2% | inhibition at 10 µM (HCT-116): 42.5%; inhibition at 10 µM (MDA-MB-435): 188%; inhibition at 10 µM (HCC-2998): 183%; inhibition at 10 µM (SNB-19): 81.1%; inhibition at 10 µM (SW-620): 181%
CCn1cc(C(=O)NN=Cc2cccc(F)c2)c(=O)c2cc(F)c(N3CCNC(C)C3)c(F)c21 (stereo not drawn) [Compound 3b, 1-Ethyl-6,8-difluoro-N′-(3-fluorobenzylidene)-7-(3-methylpiperazin-1-yl)-4-oxo-1,4-dihydroquinoline-3-carbohydrazide] | 47.4% | 105% | 107% | 16.6% | 167% | 130% | 49.2% | 79.4% | 21.6% | 127% | 174% | 13.5% | 76.2% | 104% | 140% | 48.8% | 9.76% | 150% | 30.6% | 25.6% | inhibition at 10 µM (HCT-116): 28.8%; inhibition at 10 µM (MDA-MB-435): 175%; inhibition at 10 µM (HCC-2998): 181%; inhibition at 10 µM (SNB-19): 159%; inhibition at 10 µM (SW-620): 185%
